Measurements from patent US20250270191A1, “QUINOLONE BCL6 BIFUNCTIONAL DEGRADERS” (Treeline Biosciences, Inc., priority 2022, published 2025).

Biological target: T1, Human BCL6 protein (N-terminal HiBiT tagged BCL6 in HT1080 cells) (Homo sapiens, UniProt P41182+Q96SW2)
T1 construct: Human BCL6 protein coding open reading frame; expressed in transfected cells; host or cells: HT1080 (ATCC CCL-121), stably transduced with lentivirus pLV-UBC-N-HiBiT-BCL6-PGK-puro
Assay: HiBiT based BCL6 degradation assay
Format: cell-based
Settings: HT1080 cells expressing N-terminal HiBiT tagged BCL6; 5 hours incubation; BCL6 degradation normalized with DMSO control
From the text: Human BCL6 protein coding open reading frame fused with N-terminal HiBiT coding sequence was synthesized from Integrated DNA Technologies (IDT). Next, the N-HiBiT-BCL6 sequence was cloned into pLV-UBC-PGK-Puro, a lentivirus plasmid purchased from Vectorbuilder, to generate pLV-UBC-N-HiBiT-BCL6-PGK-puro. Lentiviral particles were generated from Lenti-X™ 293T cells (Clontech) by co-transfection of pLV-UBC-N-HiBiT-BCL6-PGK-puro plasmids and lentiviral packaging plasmid mix (Cellecta). HT1080 [HT1080] (ATCC CCL-121) cells were infected with the lentivirus, and HT1080 cells stably integrated with the lentiviral vectors were established by incubation with 1 μg/mL puromycin (Thermofisher).
HT1080 cells expressing N-terminal HiBiT tagged BCL6 were dispensed into a 384-well plate pre-spotted with compounds at varying concentrations. Five thousand cells were seeded into each well in 40 μL of RPMI 1640 media plus 10% Fetal Bovine Serum (10082-147, Thermofisher). After 5 hours of incubation at 37° C. with 5% CO2, 30 μL of the NANO-GLO® HiBiT Lytic Detection System working solution (Promega) was added to each well and incubated at room temperature for 15 min. After incubation, luminescence was read on a PHERAstar FSX Plate Reader (BMG). BCL6 degradation at each indicated concentration was normalized with DMSO control. The BCL6 degradation curves were plotted using a four-parameter logistic model.

CNC(=O)COc1cc2cc(Nc3nc(NC[C@H]4CC[C@@H](Nc5ccc6c(C7CCC(=O)NC7=O)nn(C)c6c5)CC4)ncc3Cl)ccc2n(C)c1=O (some centres unmarked) [Compound 289a, 2-((6-((5-chloro-2-((((1s,4s)-4-((3-(2,6-dioxopiperidin-3-yl)-1-methyl-1H-indazol-6-yl)amino)cyclohexyl)methyl)amino)pyrimidin-4-yl)amino)-1-methyl-2-oxo-1,2-dihydroquinolin-3-yl)oxy)-N-methylacetamide]
Ymin (5 hr): + (Ymin > 70%)

CNC(=O)COc1cc2cc(Nc3nc(NC[C@H]4CC[C@H](Nc5ccc6c(C7CCC(=O)NC7=O)nn(C)c6c5)CC4)ncc3Cl)ccc2n(C)c1=O (some centres unmarked) [Compound 289b, 2-((6-((5-chloro-2-((((1r,4r)-4-((3-(2,6-dioxopiperidin-3-yl)-1-methyl-1H-indazol-6-yl)amino)cyclohexyl)methyl)amino)pyrimidin-4-yl)amino)-1-methyl-2-oxo-1,2-dihydroquinolin-3-yl)oxy)-N-methylacetamide]
Ymin (5 hr): ++++ (Ymin ≤ 25%)

CNC(=O)COc1cc2cc(Nc3nc(N4CCC(C5CN(c6ccc7c(C8CCC(=O)NC8=O)nn(C)c7c6)C5)CC4)ncc3Cl)ccc2n(C)c1=O (centres unmarked) [Compound 292, 2-((6-((5-chloro-2-(4-(1-(3-(2,6-dioxopiperidin-3-yl)-1-methyl-1H-indazol-6-yl)azetidin-3-yl)piperidin-1-yl)pyrimidin-4-yl)amino)-1-methyl-2-oxo-1,2-dihydroquinolin-3-yl)oxy)-N-methylacetamide]
Ymin (5 hr): +++ (25% < Ymin ≤ 50%)

CNC(=O)COc1cc2cc(Nc3nc(NC[C@H]4CC[C@@H](CNc5ccc6c(C7CCC(=O)NC7=O)nn(C)c6c5)CC4)ncc3Cl)ccc2n(C)c1=O (some centres unmarked) [Compound 293a, 2-((6-((5-chloro-2-((((1s,4s)-4-(((3-(2,6-dioxopiperidin-3-yl)-1-methyl-1H-indazol-6-yl)amino)methyl)cyclohexyl)methyl)amino)pyrimidin-4-yl)amino)-1-methyl-2-oxo-1,2-dihydroquinolin-3-yl)oxy)-N-methylacetamide]
Ymin (5 hr): +++ (25% < Ymin ≤ 50%)

CNC(=O)COc1cc2cc(Nc3nc(NC[C@H]4CC[C@H](CNc5ccc6c(C7CCC(=O)NC7=O)nn(C)c6c5)CC4)ncc3Cl)ccc2n(C)c1=O (some centres unmarked) [Compound 293b, 2-((6-((5-chloro-2-((((1r,4r)-4-(((3-(2,6-dioxopiperidin-3-yl)-1-methyl-1H-indazol-6-yl)amino)methyl)cyclohexyl)methyl)amino)pyrimidin-4-yl)amino)-1-methyl-2-oxo-1,2-dihydroquinolin-3-yl)oxy)-N-methylacetamide]
Ymin (5 hr): ++ (50% < Ymin ≤ 70%)

CNC(=O)COc1cc2cc(Nc3nc(NC[C@H]4CCCN(c5ccc6c(C7CCC(=O)NC7=O)nn(C)c6c5)C4)ncc3Cl)ccc2n(C)c1=O (stereo partly drawn) [Compound 295a, 2-((6-((5-chloro-2-((((3R)-1-(3-(2,6-dioxopiperidin-3-yl)-1-methyl-1H-indazol-6-yl)piperidin-3-yl)methyl)amino)pyrimidin-4-yl)amino)-1-methyl-2-oxo-1,2-dihydroquinolin-3-yl)oxy)-N-methylacetamide]
Ymin (5 hr): ++ (50% < Ymin ≤ 70%)

CNC(=O)COc1cc2cc(Nc3nc(NC[C@@H]4CCCN(c5ccc6c(C7CCC(=O)NC7=O)nn(C)c6c5)C4)ncc3Cl)ccc2n(C)c1=O (stereo partly drawn) [Compound 295b, 2-((6-((5-chloro-2-((((3S)-1-(3-(2,6-dioxopiperidin-3-yl)-1-methyl-1H-indazol-6-yl)piperidin-3-yl)methyl)amino)pyrimidin-4-yl)amino)-1-methyl-2-oxo-1,2-dihydroquinolin-3-yl)oxy)-N-methylacetamide]
Ymin (5 hr): ++ (50% < Ymin ≤ 70%)

CNC(=O)COc1cc2cc(Nc3nc(N4CCC(CCCOc5ccc6c(C7CCC(=O)NC7=O)nn(C)c6c5)CC4)ncc3Cl)ccc2n(C)c1=O (centres unmarked) [Compound 296, 2-((6-((5-chloro-2-(4-(3-((3-(2,6-dioxopiperidin-3-yl)-1-methyl-1H-indazol-6-yl)oxy)propyl)piperidin-1-yl)pyrimidin-4-yl)amino)-1-methyl-2-oxo-1,2-dihydroquinolin-3-yl)oxy)-N-methylacetamide]
Ymin (5 hr): +++ (25% < Ymin ≤ 50%)

CNC(=O)COc1cc2cc(Nc3nc(NC[C@H]4CC[C@@H](CNc5cccc6c(C7CCC(=O)NC7=O)nn(C)c56)CC4)ncc3Cl)ccc2n(C)c1=O (some centres unmarked) [Compound 297a, 2-((6-((5-chloro-2-((((1s,4s)-4-(((3-(2,6-dioxopiperidin-3-yl)-1-methyl-1H-indazol-7-yl)amino)methyl)cyclohexyl)methyl)amino)pyrimidin-4-yl)amino)-1-methyl-2-oxo-1,2-dihydroquinolin-3-yl)oxy)-N-methylacetamide]
Ymin (5 hr): ++ (50% < Ymin ≤ 70%)

CNC(=O)COc1cc2cc(Nc3nc(NC[C@H]4CC[C@H](CNc5cccc6c(C7CCC(=O)NC7=O)nn(C)c56)CC4)ncc3Cl)ccc2n(C)c1=O (some centres unmarked) [Compound 297b, 2-((6-((5-chloro-2-((((1r,4r)-4-(((3-(2,6-dioxopiperidin-3-yl)-1-methyl-1H-indazol-7-yl)amino)methyl)cyclohexyl)methyl)amino)pyrimidin-4-yl)amino)-1-methyl-2-oxo-1,2-dihydroquinolin-3-yl)oxy)-N-methylacetamide]
Ymin (5 hr): ++ (50% < Ymin ≤ 70%)

CNC(=O)COc1cc2cc(Nc3nc(N4CCN(CC5CCC6(CC5)CN(c5ccc7c(C8CCC(=O)NC8=O)nn(C)c7c5)C6)CC4)ncc3Cl)ccc2n(C(C)C)c1=O (centres unmarked) [Compound 298, 2-((6-((5-chloro-2-(4-((2-(3-(2,6-dioxopiperidin-3-yl)-1-methyl-1H-indazol-6-yl)-2-azaspiro[3.5]nonan-7-yl)methyl)piperazin-1-yl)pyrimidin-4-yl)amino)-1-isopropyl-2-oxo-1,2-dihydroquinolin-3-yl)oxy)-N-methylacetamide]
Ymin (5 hr): +++ (25% < Ymin ≤ 50%)

CNC(=O)COc1cc2cc(Nc3nc(N4CCC[C@H](CN(C)c5cccc6c(C7CCC(=O)NC7=O)nn(C)c56)C4)ncc3Cl)ccc2n(C)c1=O (stereo partly drawn) [Compound 299a, 2-((6-((5-chloro-2-((3R)-3-(((3-(2,6-dioxopiperidin-3-yl)-1-methyl-1H-indazol-7-yl)(methyl)amino)methyl)piperidin-1-yl)pyrimidin-4-yl)amino)-1-methyl-2-oxo-1,2-dihydroquinolin-3-yl)oxy)-N-methylacetamide]
Ymin (5 hr): +++ (25% < Ymin ≤ 50%)

CNC(=O)COc1cc2cc(Nc3nc(N4CCC[C@@H]4CNc4cccc5c(C6CCC(=O)NC6=O)nn(C)c45)ncc3Cl)ccc2n(C)c1=O (stereo partly drawn) [Compound 300a, 2-((6-((5-chloro-2-((2R)-2-(((3-(2,6-dioxopiperidin-3-yl)-1-methyl-1H-indazol-7-yl)amino)methyl)pyrrolidin-1-yl)pyrimidin-4-yl)amino)-1-methyl-2-oxo-1,2-dihydroquinolin-3-yl)oxy)-N-methylacetamide]
Ymin (5 hr): ++ (50% < Ymin ≤ 70%)

CNC(=O)COc1cc2cc(Nc3nc(N4CCC[C@H]4CNc4cccc5c(C6CCC(=O)NC6=O)nn(C)c45)ncc3Cl)ccc2n(C)c1=O (stereo partly drawn) [Compound 300b, 2-((6-((5-chloro-2-((2S)-2-(((3-(2,6-dioxopiperidin-3-yl)-1-methyl-1H-indazol-7-yl)amino)methyl)pyrrolidin-1-yl)pyrimidin-4-yl)amino)-1-methyl-2-oxo-1,2-dihydroquinolin-3-yl)oxy)-N-methylacetamide]
Ymin (5 hr): + (Ymin > 70%)

CNC(=O)COc1cc2cc(Nc3nc(N4CCC[C@H](COc5cccc6c(C7CCC(=O)NC7=O)nn(C)c56)C4)ncc3Cl)ccc2n(C)c1=O (stereo partly drawn) [Compound 301a, 2-((6-((5-chloro-2-((3S)-3-(((3-(2,6-dioxopiperidin-3-yl)-1-methyl-1H-indazol-7-yl)oxy)methyl)piperidin-1-yl)pyrimidin-4-yl)amino)-1-methyl-2-oxo-1,2-dihydroquinolin-3-yl)oxy)-N-methylacetamide]
Ymin (5 hr): ++ (50% < Ymin ≤ 70%)

CNC(=O)COc1cc2cc(Nc3nc(N4CCC[C@@H](COc5cccc6c(C7CCC(=O)NC7=O)nn(C)c56)C4)ncc3Cl)ccc2n(C)c1=O (stereo partly drawn) [Compound 301b, 2-((6-((5-chloro-2-((3R)-3-(((3-(2,6-dioxopiperidin-3-yl)-1-methyl-1H-indazol-7-yl)oxy)methyl)piperidin-1-yl)pyrimidin-4-yl)amino)-1-methyl-2-oxo-1,2-dihydroquinolin-3-yl)oxy)-N-methylacetamide]
Ymin (5 hr): ++ (50% < Ymin ≤ 70%)

CNC(=O)COc1cc2cc(Nc3nc(N4CCC[C@H](COc5ccc6c(C7CCC(=O)NC7=O)nn(C)c6c5)C4)ncc3Cl)ccc2n(C)c1=O (stereo partly drawn) [Compound 302a, 2-((6-((5-chloro-2-((3S)-3-(((3-(2,6-dioxopiperidin-3-yl)-1-methyl-1H-indazol-6-yl)oxy)methyl)piperidin-1-yl)pyrimidin-4-yl)amino)-1-methyl-2-oxo-1,2-dihydroquinolin-3-yl)oxy)-N-methylacetamide]
Ymin (5 hr): ++ (50% < Ymin ≤ 70%)
